Molecular target: CFTR-mediated chloride transport (Homo sapiens, UniProt P13569)
Test: Corrector Assay A - membrane potential dye assay (enteroid cells)
Conditions: for Corrector Assay A % activity: % of chloride transport of triple combination control (1 μM (14S)-dispiro macrocycle + 3 μM tezacaftor + 300 nM ivacaftor); for EC50: read-out: Corrector Assay A EC50, human intestinal enteroid cells, 18-24 h incubation, acute 10 μM forskolin + 300 nM ivacaftor

Corrector Assay A % activity | EC50 | Compound
++ (++ is 30-60%) | 1000 to 3000 nM | CC(C)(C)c1ccc2c(n1)N1C[C@@H](CCC(c3cc(N)ccn3)Nc3cccc(n3)S(=O)(=O)NC2=O)CC1(C)C (single isomer, unassigned) [Compound 48]
+++ (+++ is >60%) | < 1000 nM | CC(C)c1ccn(-c2ccc3c(n2)N2C[C@@H](CC[C@H](c4ccccn4)Nc4cccc(n4)S(=O)(=O)NC3=O)CC2(C)C)n1 [Compound 336]
++ (++ is 30-60%) | < 1000 nM | CC(C)(C)c1ccc2c(n1)N1C[C@@H](CCC(c3ccc(CCN)cn3)Nc3cccc(n3)S(=O)(=O)NC2=O)CC1(C)C (stereo partly shown) [Compound 114]
++ (++ is 30-60%) | < 1000 nM | CN1CCC(C2CC[C@@H]3CN(c4nc(C(C)(C)C)ccc4C(=O)NS(=O)(=O)c4cccc(n4)N2)C(C)(C)C3)CC1 (single isomer, unassigned) [Compound 241]
+ (+ is <30%) | < 1000 nM | CN(C)Cc1ccnc([C@@H]2CC[C@@H]3CN(c4nc(C(C)(C)C)ccc4C(=O)NS(=O)(=O)c4cccc(n4)N2)C(C)(C)C3)c1 (single isomer, unassigned) [Compound 87]
++ (++ is 30-60%) | < 1000 nM | CC(=O)NCc1ccc(C2CC[C@@H]3CN(c4nc(C(C)(C)C)ccc4C(=O)NS(=O)(=O)c4cccc(n4)N2)C(C)(C)C3)nc1 (stereo partly shown) [Compound 71]
++ (++ is 30-60%) | < 1000 nM | CC(C)(C)c1ccc2c(n1)N1C[C@@H](CC[C@@H](c3cccc(C#N)n3)Nc3cccc(n3)S(=O)(=O)NC2=O)CC1(C)C [Compound 210]
+++ (+++ is >60%) | < 1000 nM | CC(C)(C)c1ccc2c(n1)N1C[C@@H](CCC(c3ccc(CO)cn3)Nc3cccc(n3)S(=O)(=O)NC2=O)CC1(C)C (stereo partly shown) [Compound 78]
++ (++ is 30-60%) | < 1000 nM | CC(C)(C)c1ccc2c(n1)N1C[C@@H](CC[C@@H](C3CCOCC3)Nc3cccc(n3)S(=O)(=O)NC2=O)CC1(C)C (single isomer, unassigned) [Compound 269]
++ (++ is 30-60%) | < 1000 nM | CC(C)(C)c1ccc2c(n1)N1C[C@@H](CCC(c3cc(C#N)ccn3)Nc3cccc(n3)S(=O)(=O)NC2=O)CC1(C)C (single isomer, unassigned) [Compound 143]
+ (+ is <30%) | 1000 to 3000 nM | CC(C)(C)OC(=O)N1CCC2(CC1)CC(NC(=O)[C@@H]1CC[C@@H]3CN(c4nc(C(C)(C)C)ccc4C(=O)NS(=O)(=O)c4cccc(n4)N1)C(C)(C)C3)C2 [Compound 227]
+++ (+++ is >60%) | < 1000 nM | CN1CCN(c2cccc([C@H]3CC[C@@H]4CN(c5nc(C(C)(C)C)ccc5C(=O)NS(=O)(=O)c5cccc(n5)N3)C(C)(C)C4)n2)CC1 [Compound 195, (14S,17R)-8-tert-butyl-12,12-dimethyl-17-[6-(4-methylpiperazin-1-yl)pyridin-2-yl]-2λ^6-thia-3,9,11,18,23-pentaazatetracyclo[17.3.1.111,14.05,10]tetracosa-1(22),5,7,9,19(23),20-hexaene-2,2,4-trione]
++ (++ is 30-60%) | < 1000 nM | CC(O)CC1CC[C@@H]2CN(c3nc(C(C)(C)C)ccc3C(=O)NS(=O)(=O)c3cccc(n3)N1)C(C)(C)C2 (single isomer, unassigned) [Compound 22]
+++ (+++ is >60%) | 1000 to 3000 nM | CC(C)(C)c1ccc2c(n1)N1C[C@@H](CC[C@H](c3cccc(CNCC(F)(F)F)n3)Nc3cccc(n3)S(=O)(=O)NC2=O)CC1(C)C [Compound 50, (14S,17R)-8-tert-Butyl-12,12-dimethyl-17-(6-{[(2,2,2-trifluoroethyl)amino]methyl}pyridin-2-yl)-2λ^6-thia-3,9,11,18,23-pentaazatetracyclo[17.3.1.111,14.05,10]tetracosa-1(22),5,7,9,19(23),20-hexaene-2,2,4-trione]

The remaining lines, values behind:

Compound | Corrector Assay A % activity | EC50
CC(C)(C)c1ccc2c(n1)N1C[C@@H](CCC(c3ccc(C4CCNCC4)cn3)Nc3cccc(n3)S(=O)(=O)NC2=O)CC1(C)C (stereo partly shown) [Compound 153] | ++ (++ is 30-60%) | < 1000 nM
CC1(C)CCCc2cc3c(nc21)N1C[C@@H](CCC(c2ccccn2)Nc2cccc(n2)S(=O)(=O)NC3=O)CC1(C)C (single isomer, unassigned) [Compound 263] | +++ (+++ is >60%) | < 1000 nM
CC(C)(C)c1ccc2c(n1)N1C[C@@H](CC[C@H](c3cccc(C4=CCNCC4)n3)Nc3cccc(n3)S(=O)(=O)NC2=O)CC1(C)C [Compound 142, (14S,17R)-8-tert-Butyl-12,12-dimethyl-17-{1′,2′,3′,6′-tetrahydro-[2,4′-bipyridine]-6-yl}-2λ^6-thia-3,9,11,18,23-pentaazatetracyclo [17.3.1.111,14.05,10]tetracosa-1(23),5(10),6,8,19,21-hexaene-2,2,4-trione] | +++ (+++ is >60%) | < 1000 nM
CC(C)(C)c1ccc2c(n1)N1C[C@@H](CCC(c3ccc(N)cn3)Nc3cccc(n3)S(=O)(=O)NC2=O)CC1(C)C (stereo partly drawn) [Compound 64, (14S)-17-(5-aminopyridin-2-yl)-8-tert-butyl-12,12-dimethyl-2λ^6-thia-3,9,11,18,23-pentaazatetracyclo[17.3.1.111,14.05,10]tetracosa-1(23),5(10),6,8,19,21-hexaene-2,2,4-trione] | ++ (++ is 30-60%) | < 1000 nM
CC(C)(C)c1ccc2c(n1)N1C[C@@H](CCC(c3cc(Cl)ccn3)Nc3cccc(n3)S(=O)(=O)NC2=O)CC1(C)C (single isomer, unassigned) [Compound 128] | +++ (+++ is >60%) | < 1000 nM
COC(=O)NCc1ccc(C2CC[C@@H]3CN(c4nc(C(C)(C)C)ccc4C(=O)NS(=O)(=O)c4cccc(n4)N2)C(C)(C)C3)nc1 (stereo partly shown) [Compound 88] | +++ (+++ is >60%) | < 1000 nM
CC1(COc2ccn(-c3ccc4c(n3)N3C[C@@H](CC[C@H](c5ccccn5)Nc5cccc(n5)S(=O)(=O)NC4=O)CC3(C)C)n2)CC1 [Compound 321] | +++ (+++ is >60%) | < 1000 nM
Cc1ccc2cc3c(nc2c1)N1C[C@@H](CC[C@@H](c2cc(C(C)(C)C)ccn2)Nc2cccc(n2)S(=O)(=O)NC3=O)CC1(C)C (single isomer, unassigned) [Compound 8] | ++ (++ is 30-60%) | < 1000 nM
CC(=O)NCc1ccc(C2CC[C@@H]3CN(c4nc(C(C)(C)C)ccc4C(=O)NS(=O)(=O)c4cccc(n4)N2)C(C)(C)C3)nc1 (stereo partly drawn) [Compound 72, N-({6-[(14S)-8-tert-Butyl-12,12-dimethyl-2,2,4-trioxo-2λ^6-thia-3,9,11,18,23-pentaazatetracyclo[17.3.1.111,14.05,10]tetracosa-1(23),5(10),6,8,19,21-hexaen-17-yl]pyridin-3-yl}methyl)acetamide] | ++ (++ is 30-60%) | < 1000 nM
CC(C)(C)c1ccc2c(n1)N1C[C@@H](CCC(c3ccc(N4CCOCC4)cn3)Nc3cccc(n3)S(=O)(=O)NC2=O)CC1(C)C (stereo partly shown) [Compound 199] | +++ (+++ is >60%) | < 1000 nM
CC(C)(C)c1ccc2c(n1)N1C[C@@H](CC[C@@H](C3CCN(c4ncccn4)CC3)Nc3cccc(n3)S(=O)(=O)NC2=O)CC1(C)C (single isomer, unassigned) [Compound 219] | ++ (++ is 30-60%) | < 1000 nM
CC(C)(C)c1ccc2c(n1)N1C[C@@H](CC[C@@H](c3cccc(CCC#N)n3)Nc3cccc(n3)S(=O)(=O)NC2=O)CC1(C)C [Compound 139] | + (+ is <30%) | > 3000 nM
C[C@@H](O)C[C@@H]1CC[C@@H]2CN(c3nc(C(C)(C)C)ccc3C(=O)NS(=O)(=O)c3cccc(n3)N1)C(C)(C)C2 (single isomer, unassigned) [Compound 27] | ++ (++ is 30-60%) | < 1000 nM
CC(C)(C)c1ccc2c(n1)N1CC(CCCNc3cncc(n3)S(=O)(=O)NC2=O)CC1(C)C (single isomer, unassigned) [Compound 252, 8-tert-butyl-12,12-dimethyl-2λ^6-thia-3,9,11,18,21,23-hexaazatetracyclo[17.3.1.111,14.05,10]tetracosa-1(22),5,7,9,19(23),20-hexaene-2,2,4-trione] | ++ (++ is 30-60%) | < 1000 nM
CC(C)(C)c1ccc2c(n1)N1C[C@@H](CC[C@H](c3cccc(C#N)n3)Nc3cccc(n3)S(=O)(=O)NC2=O)CC1(C)C [Compound 211, 6-[(14S,17R)-8-tert-Butyl-12,12-dimethyl-2,2,4-trioxo-2λ^6-thia-3,9,11,18,23-pentaazatetracyclo[17.3.1.111,14.05,10]tetracosa-1(22),5,7,9,19(23),20-hexaen-17-yl]pyridine-2-carbonitrile] | +++ (+++ is >60%) | < 1000 nM
CC(C)(C)c1ccc2c(n1)N1CC(CCN(c3ccccc3)C(=O)c3cccc(c3)S(=O)(=O)NC2=O)CC1(C)C (single isomer, unassigned) [Compound 267, 8-tert-Butyl-12,12-dimethyl-17-phenyl-2λ^6-thia-3,9,11,17-tetraazatetracyclo[17.3.1.111,14.05,10]tetracosa-1(22),5,7,9,19(23),20-hexaene-2,2,4,18-tetrone] | + (+ is <30%) | > 3000 nM
C[C@@H](O)C[C@@H]1CC[C@@H]2CN(c3nc(C(C)(C)C)ccc3C(=O)NS(=O)(=O)c3cccc(n3)N1)C(C)(C)C2 (single isomer, unassigned) [Compound 28] | +++ (+++ is >60%) | < 1000 nM
Cc1cccc2cc3c(nc12)N1C[C@@H](CCC(c2cc(C(C)(C)C)ccn2)Nc2cccc(n2)S(=O)(=O)NC3=O)CC1(C)C (single isomer, unassigned) [Compound 4] | ++ (++ is 30-60%) | < 1000 nM

— patent US20220313698A1, “MODULATORS OF CYSTIC FIBROSIS TRANSMEMBRANE CONDUCTANCE REGULATOR” (Vertex Pharmaceuticals Incorporated, priority 2019, published 2022)
